Measurements: patent US8691576B2, “Regeneration and mass propagation of Jatropha curcas through somatic embryogenesis” (Joil (S) Pte Ltd., priority 2008, dated 2014)

Test system: Jatropha curcas immature zygotic embryo and endosperm explants
Assay: Effect of 2,4-D concentration and zygotic embryo size on somatic embryo and calli formation
Format: cell-based
Design: key to Explant Development Root Length / Explant Development Hypocotyl Length / Explant Development Calli Size: The relative size of explants and calli are indicated by the number of + symbols.; ++: The relative size of explants and calli are indicated by the number of + symbols.; +++: The relative size of explants and calli are indicated by the number of + symbols.; ++++: The relative size of explants and calli are indicated by the number of + symbols.; +++++: The relative size of explants and calli are indicated by the number of + symbols
Conditions: end of 3rd week
Experimental: Developing fruits were surfaced-sterilized and dissected to yield 200 immature zygotic embryos that were shorter than 1.5 cm in length. The embryos were separated into two groups, “<0.5 cm” and “0.5-1.5 cm”. The endosperm and zygotic embryo explants were cultured on solid media with various concentration of 2,4-D. On the 5th day, the embryos, which became greenish, enlarged and hardened, were removed from the endosperms and cut into small pieces of about 0.25 cm^2 each. The endosperm and embryo explants were cultured separately on the same media in the dark at 28° C. It was confirmed that most somatic embryos were produced on the endosperm explants where the embryos had been detached. It is apparent that, although 2,4-D was not essential for initiation of somatic embryos; […] concentration of it causes excessive expansion of explants.

O=C(O)COc1ccc(Cl)cc1Cl [2,4-D, 2,4-dichlorophenoxyacetic acid]
+: Explant Development Hypocotyl Length (2,4-D 2 mg/L) | Explant Development Root Length (2,4-D 2 mg/L) | Explant Development Hypocotyl Length (2,4-D 5 mg/L) | Explant Development Root Length (2,4-D 5 mg/L) | Explant Development Hypocotyl Length (2,4-D 10 mg/L) | Explant Development Root Length (2,4-D 10 mg/L) | Explant Development Hypocotyl Length (2,4-D 15 mg/L) | Explant Development Root Length (2,4-D 15 mg/L) | Explant Development Calli Size (2,4-D 20 mg/L) | Explant Development Hypocotyl Length (2,4-D 20 mg/L) | Explant Development Root Length (2,4-D 20 mg/L)
++++: Explant Development Root Length (2,4-D 0.1 mg/L) | Explant Development Hypocotyl Length (2,4-D 0.2 mg/L) | Explant Development Calli Size (2,4-D 1 mg/L) | Explant Development Calli Size (2,4-D 2 mg/L)
++: Explant Development Calli Size (2,4-D 0.1 mg/L) | Explant Development Calli Size (2,4-D 0.2 mg/L) | Explant Development Root Length (2,4-D 0.5 mg/L) | Explant Development Root Length (2,4-D 1 mg/L) | Explant Development Calli Size (2,4-D 15 mg/L)
more favorable at about 0.5-10 mg/l: Calli formation
+++++: Explant Development Hypocotyl Length (2,4-D 0.1 mg/L)
+++: Explant Development Root Length (2,4-D 0.2 mg/L) | Explant Development Calli Size (2,4-D 0.5 mg/L) | Explant Development Hypocotyl Length (2,4-D 0.5 mg/L) | Explant Development Hypocotyl Length (2,4-D 1 mg/L) | Explant Development Calli Size (2,4-D 5 mg/L) | Explant Development Calli Size (2,4-D 10 mg/L)
